Measurements reported in ChEMBL document CHEMBL5316338, “Discovery of Novel PTP1B Inhibitors with Once-Weekly Therapeutic Potential for Type 2 Diabetes: Design, Synthesis, and In Vitro and In Vivo Investigations of BimBH3 Peptide Analogues” (J Med Chem, 2023).
Active and inactive are the calls of the source. The rule behind the calls is not given here. Square brackets hold non-standard residues; d marks the D form. Peptide text beside a SMILES is read from it. * marks the point of attachment. ξ: configuration not given here. C22 diacid = O=C(O)CCCCCCCCCCCCCCCCCCCCC(=O)*; ξR = N=C(N)NCCCC(N)C(=O)O

Columns and labels:
chymotrypsin [1] = target: chymotrypsin (Homo sapiens, UniProt P17538+P40313+Q6GPI1+Q99895); assay: Stability of compound assessed as chymotrypsin (unknown origin) mediated compound degradation by measuring half-life by RP-HPLC analysis; type: ADME, protein assay
Mus musculus [2] = assay: Antidiabetic activity against sc dosed C57BL/Ks db/db mouse assessed as reduction in glucagon level at 1 umol/kg by ELISA analysis; type: functional, organism-based; settings: dose 1.0 µmol/kg
Mus musculus [3] = assay: Antidiabetic activity against sc dosed C57BL/Ks db/db mouse assessed as reduction in C-peptide level at 1 umol/kg by ELISA analysis; type: functional, organism-based; settings: dose 1.0 µmol/kg
Mus musculus [4] = assay: Antidiabetic activity against C57BL/Ks db/db mouse assessed as redcution in fasting blood glucose level at 1 umol/kg, sc administered once a week and measured on day 8 by glucometer analysis (reference value: 27.7 +/- 3.7 […]); type: functional; settings: dose 1 µmol/kg, time 8 day
Mus musculus [5] = assay: Antidiabetic activity against over-night fasted C57BL/ks db/db mouse assessed as suppression of increased blood glucose concentration at 1 uM/kg, sc pretreated with compound for 4 weeks followed by oral glucose stimulation and measured upto 120 mins by oral glucose tolerance test; type: functional, organism-based; settings: time 40440.0 min
carboxypeptidase A = target: T1, carboxypeptidase A (Homo sapiens, UniProt P15085); assay: Stability of compound assessed as carboxypeptidase A (unknown origin) mediated compound degradation by measuring half-life by RP-HPLC analysis; type: ADME
T1 sequence (P15085 whole entry): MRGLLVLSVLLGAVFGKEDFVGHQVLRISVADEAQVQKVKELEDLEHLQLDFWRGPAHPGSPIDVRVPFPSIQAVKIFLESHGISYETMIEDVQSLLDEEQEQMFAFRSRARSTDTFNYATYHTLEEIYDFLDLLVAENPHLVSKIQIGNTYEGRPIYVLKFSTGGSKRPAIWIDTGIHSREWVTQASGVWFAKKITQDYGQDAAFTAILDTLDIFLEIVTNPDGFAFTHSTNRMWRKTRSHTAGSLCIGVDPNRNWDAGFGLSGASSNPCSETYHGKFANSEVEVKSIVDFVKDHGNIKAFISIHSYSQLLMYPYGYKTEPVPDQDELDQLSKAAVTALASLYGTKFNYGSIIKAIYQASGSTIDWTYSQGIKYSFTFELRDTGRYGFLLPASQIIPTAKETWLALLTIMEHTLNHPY

[6] = target: T2, Tyrosine-protein phosphatase non-receptor type 2 (Homo sapiens) (UniProt P17706); assay: Inhibition of recombinant human TC-PTP (1 to 314 residues) expressed in baculovirus infected insect cells using pNPP as substrate assessed as substrate hydrolysis at 50 umol/L relative to control; settings: Insect cell, dose 50.0 µmol/L
T2 sequence (whole entry): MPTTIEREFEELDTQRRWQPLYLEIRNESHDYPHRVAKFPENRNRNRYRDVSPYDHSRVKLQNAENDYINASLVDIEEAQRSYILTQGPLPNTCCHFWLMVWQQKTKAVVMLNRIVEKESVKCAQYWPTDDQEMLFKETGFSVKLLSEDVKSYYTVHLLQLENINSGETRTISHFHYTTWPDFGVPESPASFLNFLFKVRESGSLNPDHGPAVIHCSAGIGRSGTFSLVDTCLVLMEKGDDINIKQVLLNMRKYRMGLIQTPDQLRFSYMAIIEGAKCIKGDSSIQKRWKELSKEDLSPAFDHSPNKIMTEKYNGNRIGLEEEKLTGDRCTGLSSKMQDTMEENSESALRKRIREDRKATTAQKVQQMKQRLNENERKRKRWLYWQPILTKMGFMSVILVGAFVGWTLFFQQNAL

[7] = target: T3, Tyrosine-protein phosphatase non-receptor type 1 (Homo sapiens) (UniProt P18031); assay: Inhibition of N-terminal His tagged recombinant human PTP1B expressed in Escherichia coli using pNPP as substrate assessed as substrate hydrolysis at 40 umol/L relative to control; settings: dose 40.0 µmol/L
T3 sequence (whole entry): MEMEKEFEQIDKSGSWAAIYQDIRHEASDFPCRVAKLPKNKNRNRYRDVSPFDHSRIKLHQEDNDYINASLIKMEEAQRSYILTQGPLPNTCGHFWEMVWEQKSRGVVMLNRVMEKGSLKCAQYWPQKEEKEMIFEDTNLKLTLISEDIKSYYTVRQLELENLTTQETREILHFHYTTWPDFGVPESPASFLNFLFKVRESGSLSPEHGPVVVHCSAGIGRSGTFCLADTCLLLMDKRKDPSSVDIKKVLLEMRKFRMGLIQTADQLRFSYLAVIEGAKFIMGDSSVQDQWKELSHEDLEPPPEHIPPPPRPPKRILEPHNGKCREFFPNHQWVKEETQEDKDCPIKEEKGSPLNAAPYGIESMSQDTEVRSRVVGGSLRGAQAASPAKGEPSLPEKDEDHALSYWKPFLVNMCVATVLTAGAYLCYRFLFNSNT

[8] = target: T4, Tyrosine-protein phosphatase non-receptor type 1 (Homo sapiens, UniProt P18031); assay: Inhibition of N-terminal His tagged recombinant human PTP1B expressed in Escherichia coli using pNPP as substrate assessed as substrate hydrolysis
T4 sequence (P18031 whole entry): T3 sequence (whole entry)

Mus musculus [9] = assay: Antidiabetic activity against C57BL/Ks db/db mouse assessed as redcution in fasting blood glucose level at 1 umol/kg, sc administered once a week and measured on day 15 by glucometer analysis (reference value: 27.3 +/- 2.4 […]); type: functional; settings: dose 1 µmol/kg, time 15 day
Mus musculus [10] = assay: Antidiabetic activity against C57BL/Ks db/db mouse assessed as redcution in fasting blood glucose level at 1 umol/kg, sc administered once a week and measured on day 24 by glucometer analysis (reference value: 30.2 +/- 3.2 […]); type: functional; settings: dose 1 µmol/kg, time 24 day
Proteinase K = assay: Stability of compound assessed as Proteinase K (unknown origin) mediated compound degradation by measuring half-life by HPLC analysis; type: ADME
[11] = target: T5, Tyrosine-protein phosphatase non-receptor type 2 (Homo sapiens, UniProt P17706); assay: Inhibition of recombinant human TC-PTP (1 to 314 residues) expressed in baculovirus infected insect cells using pNPP as substrate assessed as substrate hydrolysis; parameters: species or system Insect cell
T5 sequence (P17706 whole entry): T2 sequence (whole entry)

Mus musculus [12] = assay: Antidiabetic activity against C57BL/Ks db/db mouse assessed as redcution in fasting blood glucose level at 1 umol/kg, sc administered once a week and measured on day 28 by glucometer analysis (reference value: 32.4 +/- 1.1 […]); type: functional; settings: dose 1 µmol/kg, time 28 day
[13] = Stability of compound assessed as Proteinase K (unknown origin) mediated compound degradation by measuring fold change of half-life by HPLC analysis relative to BimBH312-mer peptide; type: ADME
Homo sapiens = species on record: Homo sapiens; assay: Selectivity index, ratio of IC50 for inhibition of recombinant human TC-PTP (1 to 314 residues) expressed in baculovirus infected insect cells to IC50 for inhibition of N-terminal His-tagged recombinant human PTP1B expressed in Escherichia coli
[14] = Stability of compound assessed as Pepsin (unknown origin) mediated compound degradation by measuring fold change of half-life by HPLC analysis relative to BimBH312-mer peptide; type: ADME; settings: human
Mus musculus [15] = assay: Antidiabetic activity against C57BL/Ks db/db mouse assessed as redcution in fasting blood glucose level at 1 umol/kg administered subcutaneously and measured immediately by glucometer analysis (reference value: 19.0 +/- 2.7 […]); type: functional; settings: dose 1 µmol/kg; route sc
Mus musculus [16] = assay: Antidiabetic activity against sc dosed C57BL/Ks db/db mouse assessed as reduction in serum insulin level at 1 umol/kg by ELISA analysis; type: functional, organism-based; settings: dose 1.0 µmol/kg
Pepsin = assay: Stability of compound assessed as Pepsin (unknown origin) mediated compound degradation by measuring half-life by HPLC analysis; type: ADME; settings: human
Mus musculus [17] = assay: Antidiabetic activity against C57BL/Ks db/db mouse assessed as redcution in fasting blood glucose level at 1 umol/kg, sc administered once a week and measured on day 26 by glucometer analysis (reference value: 31.4 +/- 2.2 […]); type: functional; settings: dose 1 µmol/kg, time 26 day
Chymotrypsin [18] = target: Chymotrypsin (Homo sapiens, UniProt Q99895+P17538+P40313+Q6GPI1); assay: Stability of compound assessed as chymotrypsin (unknown origin) mediated compound degradation by measuring fold change of half-life by RP-HPLC analysis relative to BimBH312-mer peptide; type: ADME, protein assay
Mus musculus [19] = assay: Antidiabetic activity against C57BL/Ks db/db mouse assessed as redcution in fasting blood glucose level at 1 umol/kg, sc administered once a week and measured on day 22 by glucometer analysis (reference value: 27.4 +/- 1.8 […]); type: functional; settings: dose 1 µmol/kg, time 22 day
Carboxypeptidase A1 = target: T6, Carboxypeptidase A1 (Homo sapiens, UniProt P15085); assay: Stability of compound assessed as carboxypeptidase A (unknown origin) mediated compound degradation by measuring fold change of half-life by RP-HPLC analysis relative to BimBH312-mer peptide; type: ADME
T6 sequence (P15085 whole entry): T1 sequence (P15085 whole entry)

Mus musculus [20] = assay: Antidiabetic activity against over-night fasted C57BL/ks db/db mouse assessed as suppression of increased blood glucose concentration at 1 uM/kg, sc pretreated with compound for 4 weeks followed by insulin stimulation and measured for 90 mins by insulin tolerance test; type: functional, organism-based; settings: time 40410.0 min

In the case of `CC[C@H](C)[C@H](NC(=O)CCCCCCCCCCCCCCCCCCCCC(=O)O)C(=O)N[C@@H](C)C(=O)N[C@@H](CCC(N)=O)C(=O)N[C@@H](CCC(=O)O)C(=O)N[C@@H](CC(C)C)C(=O)N[C@@H](CCCNC(=N)N)C(=O)NC(CCCNC(=N)N)C(=O)N[C@H](C(=O)NCC(=O)N[C@@H](CC(=O)O)C(=O)N[C@@H](CCC(=O)O)C(=O)N[C@@H](Cc1ccccc1)C(=O)O)[C@@H](C)CC` (stereo not given in full) ({C22 diacid}-IAQELR[ξR]IGDEF-OH), the half-life (chymotrypsin [1]) is reported as 6.81 h, the Activity (Mus musculus [2]) is reported as “Active” and the Activity (Mus musculus [3]) is reported as “Active”. For the same molecule, the “Fasting blood glucose level” value (Mus musculus [4]) was 11.5 mmol/L, the Activity (Mus musculus [5]) was “Active” and the half-life (carboxypeptidase A) was 1.28 h. For the same molecule, the inhibition [6] was less than 50%, the inhibition [7] was greater than 50% and the IC50 [8] was 200 nM. The Fasting blood glucose (Mus musculus [9]) was 11 mmol/L, the “Fasting blood glucose level” value (Mus musculus [10]) was 16 mmol/L and the half-life (Proteinase K) was 0.51 h. The IC50 [11] was greater than 50000 nM, the “Fasting blood glucose level” value (Mus musculus [12]) was 17 mmol/L and the “fold change (FC)” value [13] was 10.2. The Ratio IC50 (Homo sapiens) was greater than 250, the “fold change (FC)” value [14] was 64.1 and the “Fasting blood glucose level” value (Mus musculus [15]) was 19.7 mmol/L. The Activity (Mus musculus [16]) was “Active”, the half-life (Pepsin) was 1.41 h and the “Fasting blood glucose level” value (Mus musculus [17]) was 19.7 mmol/L. For the same molecule, the “fold change (FC)” value (Chymotrypsin [18]) was 158.4, the “Fasting blood glucose level” value (Mus musculus [19]) was 11.4 mmol/L and the “fold change (FC)” value (Carboxypeptidase A1) was 40. For the same molecule, the Activity (Mus musculus [20]) was “Active”.
